How the values were obtained:
[1] = system: women with moderate to severe endometriosis-related pain; assay: PROMIS Fatigue SF-6a in Phase III study of endometriosis pain; format: in vivo, human
Procedure: A Phase III study was conducted to assess the effects of elagolix for clinically meaningful reductions in pain and other symptoms. Data provided examined the impact of elagolix on fatigue in women with moderate to severe endometriosis-related pain. […] Fatigue was assessed using the Patient Reported Outcome Measurement Information System (PROMIS®), Fatigue Short Form (SF) 6a. Six items assessed a range of self-reported symptoms from mild, subjective feelings of tiredness to overwhelming, sustained sense of exhaustion that likely decreases one's ability to execute daily activities and function normally. The domain was divided into the experience of fatigue (frequency, duration and intensity) and impact of fatigue on physical, mental and social activities. All items assessed fatigue over the previous seven days. […] Lower scores indicated less fatigue. Post-hoc, Fatigue SF-6a raw scores were converted to T-scores. The T-score rescales […] the raw score into a standardized score such that the general population has a mean of 50 and a standard deviation (SD) of 10. Analysis: […] ANCOVA controlled for treatment as main effect. Baseline Fatigue SF-6a T-score included as a covariate.

monkeys = assay: Repeat-dose study in monkeys; format: in vivo; settings: 75, 150, 300 and 600 mg/kg/day, all doses
Text: Based on pharmacologic actions of elagolix in humans a reversible effect on fertility may be expected in women.

[2] = Mutagenicity studies using in vitro and in vivo test systems
Text: Mutagenicity studies have been performed with elagolix using in vitro and in vivo test systems.

rats [3] = assay: 2-year carcinogenicity study in rats; format: in vivo; settings: rat
Text: The rat tumors were identified as being species-specific and of negligible relevance to humans. This conclusion is based on a follow-on thyroid and hepatic effects-related investigative study performed to document the possibility that thyroid and liver tumors may be specific to rat and occurred via induction of hepatic drug metabolizing enzymes at the high dose.

[4] = Pharmacokinetics in specific populations (renal, hepatic impairment); format: in vivo, human; settings: for Elagolix exposures in severe hepatic impairment relative to normal hepatic function: severe hepatic impairment (Child-Pugh C)
Text: The mean exposures are similar for women with moderate to severe or end stage renal disease (including women on dialysis) compared to women with normal renal function.
Elagolix exposures (Cmax and AUC) are similar between women with normal hepatic function and women with mild hepatic impairment. Elagolix exposures in women with moderate and severe hepatic impairment are approximately 3-fold and 7-fold, respectively, of exposures from women with normal hepatic function.

[5] = system: cytochrome P450 (CYP) 3A enzyme; assay: Drug interaction potential: CYP3A
Text: Co-administration with ELAGOLIX may decrease plasma concentration of drugs that are substrates of CYP3A.
Elagolix is a substrate of CYP3A, P-gp, and organic anion transporting polypeptide (OATP)1B1. Clinically meaningful interactions are not expected when ELAGOLIX is co-administered with drugs that inhibit CYP3A or P-gp.

[6] = system: premenopausal women with uterine fibroids; assay: Phase 2a trial of Elagolix with or without add-back in uterine fibroids with heavy menstrual bleeding; format: in vivo, human; settings: for Percent of subjects achieving composite bleeding endpoint (MBL <80 mL at Final Month and ≥50% reduction in MBL from baseline, AH method): last 28 days of treatment, placebo 30%; for Percent of subjects with ≥25% reduction in uterine volume: placebo 9%; for Percent of subjects with ≥25% reduction in fibroid volume: placebo 29%; for Average Total Blood Loss Measured by AH Method During Treatment: 3 months of treatment, placebo 569.7; for Average Total MBL in Days 66-95 Post-Baseline: placebo 190.3; for Average total MBL from days 6-35 post-baseline: placebo 190.5; for Average Total MBL from Days 36-65 Post-Baseline: placebo 194.6
Procedure: Methods for analyzing menstrual blood loss are known in the art and include, for example, the alkaline hematin method. The alkaline hematin method is based on the quantitation of menstrual blood collected on sanitary products (Hallberg L., Nilsoon L., Determination of Menstrual Blood Loss. Scand. J. Clin. Lab. Invest., 1964; 16:244-248). The method uses a strong alkaline solution to chemically convert the heme from bloodstained sanitary products to alkaline hematin, which is measured colorimetrically. When compared to a subject's serum hemoglobin (Hgb), the volume of blood loss in the menstrual products can be determined. […] The study involved the following six (6) cohorts: Cohort 1: […] Cohort 2: Elagolix 300 mg BID or placebo. Cohort 3: […] Cohort 4: […] Cohort 6: […] There are a number of efficacy endpoints, but a composite endpoint consisting of two bleeding assessments was used to assess one measure of efficacy. […] Eighty-five percent (85%), 97%, and 30% of subjects achieved the composite bleeding assessment endpoint in the 200 mg BID, 300 mg BID, and placebo groups, respectively (P<0.05 for 200 mg BID versus placebo in cohort 1, and 300 mg BID versus placebo in cohort 2). […] Quality of life (QoL) measures were also determined using the “Responsiveness of the uterine fibroid symptom and health-related quality of life questionnaire” (UFS-QOL) (Harding, Gale, Coyne Karin S., Thompson Christine L., Spies James B, United BioSource Corporation, 7101 Wisconsin Avenue, Suite 600, Bethesda, Md., 20814, USA, Health and Quality Life Outcomes, 2008, 6, page 99).

rats [7] = assay: Lactation study in rats (secretion in milk); format: in vivo
Procedure: Pregnant rats were given diet containing elagolix throughout the gestation and lactation periods to achieve a daily elagolix dose of 400 mg/kg. During nursing the dams and litters were divided into restricted feeding and non-restricted groups to determine whether elagolix was secreted in the mother's milk. […] In pups of the non-restricted feeding group, elagolix plasma concentrations were measurable and approximately 1% of the mother's plasma concentrations.

[8] = 100 BID, screening 276.4 mL per cycle
[9] = 200 BID, screening 287.4 mL per cycle
[10] = 300 BID, screening 224.8 mL per cycle
[11] = 400 QD, screening 220.3 mL per cycle
[12] = 600 QD, screening 228.7 mL per cycle

## COc1cccc(-c2c(C)n(Cc3c(F)cccc3C(F)(F)F)c(=O)n(C[C@H](NCCCC(=O)O)c3ccccc3)c2=O)c1F [Elagolix, 4-((R)-2-[5-(2-fluoro-3-methoxy-phenyl)-3-(2-fluoro-6-trifluoromethyl-benzyl)-4-methyl-2,6-dioxo-3,6-dihydro-2H-pyrimidin-1-yl]-1-phenyl-ethylamino)-butyric acid]
[1]; 200 mg, Month 1
  PROMIS Fatigue SF-6a T-Score: statistically significant reduction in fatigue
[1]; both doses (150 mg QD, 200 mg BID), Months 3 and 6
  PROMIS Fatigue SF-6a T-Score: Statistically significant reductions relative to placebo
monkeys
  Reproductive organ findings in repeat-dose study: reversible atrophy of reproductive organs (cervix, uterus and vagina)
[2]
  Mutagenic or clastogenic potential: no evidence of a mutagenic or clastogenic potential
Rats [3]; both, in vivo, 2 years
  Margin of safety at the high dose with respect to 200 mg BID in women: 13 fold
Rats [3]; high dose, identified as species-specific
  Tumors in 2-year carcinogenicity study: increase in thyroid (male and female) and liver (males only) tumors
[4]; moderate hepatic impairment (Child-Pugh B)
  Elagolix exposures in moderate hepatic impairment relative to normal hepatic function: approximately 3 fold
[4]; moderate to severe or end stage renal disease vs normal renal function
  Elagolix exposures (Cmax and AUC) in renal impairment: not altered by renal impairment
[4]
  Elagolix exposures in severe hepatic impairment relative to normal hepatic function: ~7 fold
[4]; listed as elagolix
  Elagolix exposures in severe hepatic impairment relative to normal hepatic function: approximately 7 fold
[4]; vs women with normal hepatic function
  Elagolix exposures (Cmax and AUC) in mild hepatic impairment: similar
[5]
  Induction of CYP3A: weak to moderate inducer
  Substrate of CYP3A: substrate
[6]; 200 mg BID
  Percent of subjects achieving composite bleeding endpoint (MBL <80 mL at Final Month and ≥50% reduction in MBL from baseline, AH method): 85%
  Percent of subjects with ≥25% reduction in uterine volume: 50%
  Percent of subjects with ≥25% reduction in fibroid volume: 63%
[6]; 300 mg BID without add-back therapy
  Inhibition of bleeding: maximum inhibition of bleeding (most of women achieved amenorrhea)
[6]; 300 mg BID, 400 mg QD and 600 mg QD without add-back
  Women who reported an adverse event of hot flash: 50-62.5%
[6]; 300 mg BID, compared with other Elagolix treatments
  Effect on uterine and fibroid volumes (FIG. 4): showed the strongest effects
[6]; 300 mg BID
  Percent of subjects achieving composite bleeding endpoint (MBL <80 mL at Final Month and ≥50% reduction in MBL from baseline, AH method): 97%
  Percent of subjects with ≥25% reduction in uterine volume: 68%
  Percent of subjects with ≥25% reduction in fibroid volume: 55%
[6]; 400 mg QD and 600 mg QD
  Inhibition of bleeding compared with 300 mg BID: slightly less effective
[6]; 100 BID, N = 26
  Average Total Blood Loss Measured by AH Method During Treatment: 198.4 mL
[6]; [8]
  Average Total MBL in Days 66-95 Post-Baseline: 65.4 mL
  Average total MBL from days 6-35 post-baseline: 33.2 mL
  Average Total MBL from Days 36-65 Post-Baseline: 100.9 mL
[6]; 200 BID, N = 28
  Average Total Blood Loss Measured by AH Method During Treatment: 47.0 mL
[6]; [9]
  Average Total MBL in Days 66-95 Post-Baseline: 41.5 mL
  Average total MBL from days 6-35 post-baseline: 0 mL
  Average Total MBL from Days 36-65 Post-Baseline: 5.5 mL
[6]; 300 BID, N = 26
  Average Total Blood Loss Measured by AH Method During Treatment: 4.3 mL
[6]; [10]
  Average Total MBL in Days 66-95 Post-Baseline: 4.3 mL
  Average total MBL from days 6-35 post-baseline: 0 mL
  Average Total MBL from Days 36-65 Post-Baseline: 0 mL
[6]; 400 QD, N = 26
  Average Total Blood Loss Measured by AH Method During Treatment: 38.4 mL
[6]; [11]
  Average Total MBL in Days 66-95 Post-Baseline: 21.6 mL
  Average total MBL from days 6-35 post-baseline: 14.9 mL
  Average Total MBL from Days 36-65 Post-Baseline: 12.4 mL
[6]; 600 QD, N = 24
  Average Total Blood Loss Measured by AH Method During Treatment: 69.6 mL
[6]; [12]
  Average Total MBL in Days 66-95 Post-Baseline: 14.9 mL
  Average total MBL from days 6-35 post-baseline: 27.6 mL
  Average Total MBL from Days 36-65 Post-Baseline: 35.0 mL
Rats [7]; non-restricted feeding group, dams 400 mg/kg daily in diet
  Elagolix plasma concentrations in pups relative to the mother's plasma concentrations: approximately 1%
Rats [7]; rats, pup plasma as surrogate of exposure via lactation
  Secretion in milk: minimally secreted in milk
Rats [7]; restricted feeding litters, post natal day 10 and 20, dams 400 mg/kg daily in diet
  Elagolix plasma concentrations in pups: not measurable
